Source: article PMC10095357, “Inhibition of Soluble Epoxide Hydrolase Activity by Components of Glycyrrhiza uralensis” (International Journal of Molecular Sciences, 2023)
“Also recorded” adds a separate entry of the source. Where two headings read alike, the source gives them in different places.

How the values were obtained:
[1] = molecular target: T1, Human recombinant sEH (Homo sapiens, UniProt P34913); experiment: sEH enzyme kinetics (Lineweaver–Burk and Dixon plots); assay type: biochemical; details: for Ki: Dixon plot analysis; for Binding Mode: Lineweaver–Burk plot
T1 construct: purchased Cayman Chemical (Ann Arbor, MI, USA) 10011669
T1 sequence (P34913 1-555): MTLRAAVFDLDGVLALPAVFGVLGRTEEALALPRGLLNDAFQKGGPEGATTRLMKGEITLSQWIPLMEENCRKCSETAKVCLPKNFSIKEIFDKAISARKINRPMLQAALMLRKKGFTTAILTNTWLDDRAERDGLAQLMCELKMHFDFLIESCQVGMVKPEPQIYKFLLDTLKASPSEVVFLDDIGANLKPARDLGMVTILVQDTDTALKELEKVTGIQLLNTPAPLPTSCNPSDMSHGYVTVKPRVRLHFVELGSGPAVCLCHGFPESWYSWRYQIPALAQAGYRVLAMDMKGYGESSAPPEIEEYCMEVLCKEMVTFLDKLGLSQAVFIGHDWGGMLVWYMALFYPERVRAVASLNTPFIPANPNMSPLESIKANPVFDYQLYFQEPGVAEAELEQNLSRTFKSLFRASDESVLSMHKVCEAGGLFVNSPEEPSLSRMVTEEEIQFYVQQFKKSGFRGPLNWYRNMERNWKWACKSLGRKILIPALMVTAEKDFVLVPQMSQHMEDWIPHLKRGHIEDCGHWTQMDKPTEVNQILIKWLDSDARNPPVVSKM

[2] = molecular target: T1, Human recombinant sEH; experiment: sEH assay (fluorescent substrate hydrolysis, inhibitory activity and IC50); assay type: biochemical; details: for inhibition at 100 µM: read-out: Inhibitory Activity at 100 μM (%); for IC50: sEH inhibition
[3] = compound at 100 μM, tested three times

Molecule | Ki [1] | Binding Mode [1] | sEH inhibitory effect (in words) [2] | inhibition at 100 µM [2] | IC50 [2] | inhibition at 100 µM [2, 3] | sEH inhibitory effect (in words) ([2]; conclusion statement) | Inhibitory Activity at 100 μM (%) [2, 3]
O=C1C[C@@H](c2ccc(O)cc2)Oc2cc(O)ccc21 [Compound 1, liquiritigenin] | 63.1 µM | noncompetitive inhibitors; also recorded: non-competitive | moderate inhibitory effects | 61.5 ± 1.2% | 40.1 ± 1.2 µM | – | – | –
O=C1C[C@@H](c2ccc(O[C@@H]3O[C@H](CO)[C@@H](O)[C@H](O)[C@H]3O)cc2)Oc2cc(O)ccc21 [Compound 2, liquiritin] | – | – | – | – | – | 46.8 ± 0.8% | – | –
O=C(/C=C/c1ccc(O)cc1)c1ccc(O)cc1O [Compound 4, isoliquiritigenin] | 24.2 µM | Noncompetitive | – | – | 17.6 ± 0.6 µM | – | – | –
O=C(/C=C/c1ccc(O[C@@H]2O[C@H](CO)[C@@H](O)[C@H](O)[C@H]2O)cc1)c1ccc(O)cc1O [Compound 5, isoliquiritin] | 48.8 µM | Noncompetitive | – | – | 25.8 ± 0.2 µM | 80.2 ± 0.3% | – | –
COc1cc(O)ccc1C(=O)/C=C/c1ccc(O)cc1 [Compound 7, 2′-methoxyisoliquiritigenin] | 19.8 µM | competitive inhibitors | – | – | 16.2 ± 0.3 µM | 85.1 ± 0.3% | – | –
COc1ccc(-c2coc3cc(O[C@@H]4O[C@H](CO)[C@@H](O)[C@H](O)[C@H]4O)ccc3c2=O)cc1 [Compound 8, ononin] | 54.4 µM | competitive inhibitors | – | – | 35.7 ± 0.7 µM | 60.7 ± 1.3% | – | –
COc1c(CC=C(C)C)c(O)cc2oc(=O)c3c4ccc(O)cc4oc3c12 [Compound 9, glycyrol] | 41.1 µM | noncompetitive inhibitors; also recorded: non-competitive | – | – | 42.5 ± 1.5 µM | 69.5 ± 0.5% | – | –
COc1c(CC=C(C)C)c(O)cc2oc(=O)c(-c3ccc(O)cc3O)cc12 [Compound 10, glycycoumarin] | 2 µM | competitive inhibitors | – | – | 1.9 ± 0.2 µM | > 100% | potent effect | –
CC(C)=CCc1cc(-c2coc3cc(O)c(CC=C(C)C)c(O)c3c2=O)cc(O)c1O [Compound 11, isoangustone A] | 75.6 µM | noncompetitive inhibitors; also recorded: non-competitive | – | – | 85.7 ± 1.2 µM | 68.4 ± 3.1% | moderate inhibitory effects | –
CC1(C)[C@@H](O[C@H]2O[C@H](C(=O)O)[C@@H](O)[C@H](O)[C@H]2O[C@@H]2O[C@H](C(=O)O)[C@@H](O)[C@H](O)[C@H]2O)CC[C@]2(C)[C@H]3C(=O)C=C4[C@@H]5C[C@@](C)(C(=O)O)CC[C@]5(C)CC[C@@]4(C)[C@]3(C)CC[C@@H]12 [Glycyrrhizin, reference compound] | – | – | – | – | – | 18.4% | lacked such an effect | –
isoliquiritin apioside [Compound 6] | – | Noncompetitive | – | – | – | – | – | 79.3 ± 1.4%
liquiritin apioside [Compound 3] | – | competitive inhibitors | – | – | – | – | – | 57.6 ± 1.1%
